Experimental data as given in US20080039453A1, “Enantiomerically pure R-etifoxine, pharmaceutical compositions thereof and methods of their use” (priority 2006, published 2008).

Tests used:
[1] = tested on: mouse formalin pain model; test: Mouse formalin pain model (late phase licking); format: in vivo; conditions: male NSA mice, 60 mg/kg i.p., 30 minutes prior to formalin; FIG. 5
Experimental: The analgesic effect of test compounds was assessed in a mouse formalin pain model (Hole et al., 1993, Pain 53:247-254). Male NSA mice weighing between 27 and 30 g were housed with access to food and water ad libitum until the test date. On the day of testing, they were given a period of 1 h to adjust to the test chamber. Test compounds or vehicle control (75% polyethylene glycol in 5% dextrose+water) were administered i.p. at 30 minutes prior to the administration of formalin. A solution of 20 μl of 2.5% formalin was then injected subcutaneously into the dorsal side of the hind paw of the test mouse. Immediately following formalin injection, the mice were observed over the next 50 min and the time spent licking the injected hind paw was recorded. The observation time was broken down into 5 minute “bins”, with 10 bins in total. The first 5-min bin is the early phase, considered to be reflective of acute pain. Bins three to ten make up the late phase, considered a measure of chronic inflammatory pain. The results for the late phase are expressed as the averaged mean time (in seconds) that mice spent licking in a 5-min period.
Dose-response relationship was conducted in the range of 3 to 60 mg/kg. Statistical differences in response were determined by one-way analysis of variance with the Dunnett's post-hoc test by using the Prism3 statistical software (GraphPad, Inc., San Diego, Calif.).

[2] = tested on: human GABAA receptor subunits (α1β1-3γ2L GABAA receptors); test: Modulation of GABA-evoked currents in Xenopus oocytes (2-electrode clamp), GABA subunit selectivity; format: cell-based; conditions: for GABA subunit selectivity: modulation of GABA EC10-evoked currents in Xenopus oocytes expressing α1β1-3γ2L, FIGS. 4A and 4B
Experimental: GABA subunit selectivity of etifoxine enantiomers was measured based on their ability to modulate the GABA-evoked currents in Xenopus oocytes.
Receptor mRNA preparation: cDNA clones encoding human GABAA receptor subunits were obtained from commercial sources. mRNA was prepared using conventional techniques with commercially-available “mMessage machine” kits (Ambion). Individual mRNAs (˜1 μg/μL) were stored in aliquots at −80° C.
mRNA injections into Xenopus oocytes: Preparation and micro-injection of oocytes were performed as reported in detail previously (see, Whittemore et al., 1996, Mol Pharmacol 50: 1364-1375). Individual oocytes were injected with 5-50 ng of mRNA at 5:1:1 (GABA). For example, individual oocytes were injected with a 5:1:1 mixture of α1, β1-3, and γ2L (˜5-50 ng of each subunit per cell) to produce expression of α1β1-3γ2L GABAA receptors. Following injections, oocytes were maintained at 16-17° C. in Barth's medium containing (in mM): NaCl, 88; KCl, 1; CaCl2, 0.41; Ca(NO3)2, 0.33; MgSO4, 0.82; NaHCO3, 2.4; HEPES 5; pH=7.4, with 0.1 mg/ml gentamycin sulfate.
Oocyte Electrophysiological recordings: Individual oocytes were placed on a nylon mesh in a 35 mm dish, perfused with frog Ringer (see, Whittemore et al., supra), and voltage clamped at a holding potential of −70 mV. In some cases, simple voltage steps were made to test voltage-dependence. Oocytes were perfused with fresh Ringer or exposed to GABA ±modulators using a custom-made gravity-driven perfusion system consisting of a linear array of 3 capillary tubes. The concentration of GABA used to evoke control currents was adjusted for each individual oocyte to be 10% of the maximal current (EC10) measured in that cell. The concentration of GABA required to evoke EC10 ‘control’ currents varied between ˜2 and 12 μM. […] Data are expressed as % of control currents (% modulation=100*[(modulated current/GABA control current)−1].

CCNC1=Nc2ccc(Cl)cc2C(C)(c2ccccc2)O1 (single isomer, unassigned) [R-etifoxine, 6-chloro-2-(ethylamino)-4-methyl-4-phenyl-4H-3,1-benzoxazine]
analgesic effect in the formalin test (late phase licking) [1]: active
GABA subunit selectivity [2]: little or no GABA subunit selectivity

CCNC1=Nc2ccc(Cl)cc2C(C)(c2ccccc2)O1 (single isomer, unassigned) [S-etifoxine, 6-chloro-2-(ethylamino)-4-methyl-4-phenyl-4H-3,1-benzoxazine]
GABA subunit selectivity [2]: shows selectivity for GABA receptor comprising β subunit
selectivity for β2 subunit versus β1 subunit ([2]; modulation of GABA EC10-evoked currents in Xenopus oocytes, FIG. 4B): more selective for β2 subunit than β1 subunit
